Measurements as given in patent publication US11542261B2, “Substituted Imidazo[1,2-a]-pyridines as IRAK 1/4 and FLT3 inhibitors” (CHILDREN'S HOSPITAL MEDICAL CENTER, priority 2016, dated 2023).
One block for each molecule: values may come before it.

Key:
MLL-AF9/FLT3-ITD cells = format: cell-based; conditions: Homo sapiens, MLL-AF9, Table 10
MLL-AF9 NRas cells = test: NRAS IC50 (MLL-AF9 NRas cells); format: cell-based; conditions: Table 10
FLT3 phosphorylation = test: Immunoblot of phosphorylated FLT3 in MV4;11 cells; format: cell-based, human; conditions: 50 nM, 24 hours
IRAK4 phosphorylation = test: Immunoblot of P-IRAK4 in FLT3-ITD AML cells; format: cell-based, human; conditions: 50 nM
THP-1 cells = test: Inhibitory activity against THP-1 cells; format: cell-based; conditions: THP-1 cells (FLT3 wild type AML); data not shown
[1] = Rat microsomal stability (RLM); format: in vitro ADME; conditions: Table 10
IRAK4 = IRAK4 (Homo sapiens (Human), UniProt Q9NWZ3); test: HotSpot kinase IC50 assay; format: biochemical; conditions: 10 μM ATP
IRAK1 = IRAK1 (Homo sapiens (Human), UniProt P51617); test: HotSpot kinase IC50 assay; format: biochemical; conditions: 10 μM ATP

Structure (SMILES): COc1cc2ncc(-c3cccc(NC4CCNC4)n3)n2cc1-c1cn[nH]c1 (centres unmarked) [Compound I-20, 6-(7-methoxy-6-(1H-pyrazol-4-yl)imidazo[1,2-a]pyridin-3-yl)-N-(pyrrolidin-3-yl)pyridin-2-amine]
IC50 (MLL-AF9/FLT3-ITD cells): 40 nM
IC50 (MLL-AF9 NRas cells): 33200 nM
FLT3 phosphorylation (FLT3 phosphorylation): inhibited FLT3 phosphorylation comparably to AC220
compensatory phosphorylation of IRAK4 (IRAK4 phosphorylation): did not result in compensatory phosphorylation of IRAK4

Structure (SMILES): Clc1ccc2ncc(-c3cccc(NC4CCNCC4)n3)n2c1 [Compound I-2, 6-(6-chloroimidazo[1,2-a]pyridin-3-yl)-N-(piperidin-4-yl)pyridin-2-amine]
concentration without any inhibitory activity (THP-1 cells): > 10 µM
Stability [1]: >30.0 min

Structure (SMILES): c1cc(N[C@@H]2CCNC2)nc(-c2cnc3ccc(-c4cn[nH]c4)cn23)c1 [Compound I-43]
IC50 (MLL-AF9/FLT3-ITD cells): 76 nM

Structure (SMILES): Clc1cc2ncc(-c3cccc(NC4CNC4)n3)n2cc1Cl [Compound I-62]
IC50 (MLL-AF9/FLT3-ITD cells): 154 nM
Stability [1]: >30.0 min

Structure (SMILES): COc1cc2ncc(-c3cccc(OC4CCNC4)n3)n2cc1-c1cn[nH]c1 (centres unmarked) [Compound I-32, 7-methoxy-6-(1H-pyrazol-4-yl)-3-(6-(pyrrolidin-3-yloxy)pyridin-2-yl)imidazo[1,2-a]pyri-dine]
IC50 (MLL-AF9 NRas cells): 3720 nM
Stability [1]: 7.7 min

Structure (SMILES): COc1cc2ncc(-c3cccc(NC4CCNC4)n3)n2cc1-c1c(C)noc1C (centres unmarked) [Compound I-28, 6-(6-(3,5-dimethylisoxazol-4-yl)-7-methoxyimidazo[1,2-a]pyridin-3-yl)-N-(pyrrolidin-3-yl)pyridin-2-amine]
IC50 (MLL-AF9 NRas cells): 14800 nM

Structure (SMILES): Clc1ccc2ncc(-c3cc(Br)cc(NC4CNC4)n3)n2c1 [Compound I-53]
IC50 (MLL-AF9/FLT3-ITD cells): 4960 nM
Stability [1]: >30.0 min

Structure (SMILES): c1cc(N[C@H]2CCNC2)nc(-c2cnc3ccc(-c4cn[nH]c4)cn23)c1 [Compound I-44]
IC50 (MLL-AF9/FLT3-ITD cells): 17 nM

Structure (SMILES): Clc1cn2c(-c3cccc(NC4CCNC4)n3)cnc2cc1OCCN1CCOCC1 (centres unmarked) [Compound I-40]
IC50 (MLL-AF9/FLT3-ITD cells): 8 nM
IC50 (MLL-AF9 NRas cells): 626 nM
Stability [1]: >30.0 min

Structure (SMILES): COc1cc2ncc(-c3cccc(N(C)C4CCNC4)n3)n2cc1-c1cn[nH]c1 (centres unmarked) [Compound I-31, 6-(7-methoxy-6-(1H-pyrazol-4-yl)imidazo[1,2-a]pyridin-3-yl)-N-methyl-N-(pyrrolidin-3-yl)pyridin-2-amine]
IC50 (MLL-AF9 NRas cells): 16600 nM

Structure (SMILES): COc1cc(Cl)cn2c(-c3cccc(NC4CNC4)n3)cnc12 [Compound I-42, N-(azetidin-3-yl)-6-(6-chloro-8-methoxyimidazo[1,2-a]pyridin-3-yl)pyridin-2-amine]
IC50 (MLL-AF9 NRas cells): 20900 nM

Structure (SMILES): COc1cc2ncc(-c3cccc(NC4CCNC4)n3)n2cc1-c1nnn[nH]1 (centres unmarked) [Compound I-38]
IC50 (MLL-AF9/FLT3-ITD cells): 6260 nM
IC50 (MLL-AF9 NRas cells): 2 nM
Stability [1]: >30.0 min

Structure (SMILES): COc1cc2ncc(-c3cccc(NC4CCNC4)n3)n2cc1-c1cc[nH]c1 (centres unmarked) [Compound I-27, 6-(7-methoxy-6-(1H-pyrrol-3-yl)imidazo[1,2-a]pyridin-3-yl)-N-(pyrrolidin-3-yl)pyridin-2-amine]
IC50 (MLL-AF9 NRas cells): 4430 nM
Stability [1]: >30.0 min

Structure (SMILES): c1cc(NC2CCNC2)nc(-c2cnc3ccc(-c4cn[nH]c4)cn23)c1 (centres unmarked) [Compound I-54, 6-(6-(1H-pyrazol-4-yl)imidazo[1,2-a]pyridin-3-yl)-N-(pyrrolidin-3-yl)pyridin-2-amine]
IC50 (MLL-AF9/FLT3-ITD cells): 107 nM

Structure (SMILES): CN(c1cccc(-c2cnc3ccc(Cl)cn23)n1)C1CCNCC1 [Compound I-51]
IC50 (MLL-AF9/FLT3-ITD cells): 28 nM

Structure (SMILES): COc1cc2ncc(-c3cccc(NC4CCCNC4)n3)n2cc1-c1cn[nH]c1 (centres unmarked) [Compound I-29, 6-(7-methoxy-6-(1H-pyrazol-4-yl)imidazo[1,2-a]pyridin-3-yl)-N-(piperidin-3-yl)pyridin-2-amine]
IC50 (MLL-AF9 NRas cells): 9350 nM
Stability [1]: 9.8 min

Structure (SMILES): COc1cc2ncc(-c3cccc(NC4CCNC4)n3)n2cc1OC (centres unmarked) [Compound I-36]
IC50 (MLL-AF9/FLT3-ITD cells): 17 nM
IC50 (MLL-AF9 NRas cells): 4430 nM
Stability [1]: >30.0 min

Stability [1]: >30.0 min
Structure (SMILES): c1cc(NC2CNC2)nc(-c2cnc3ccccn23)c1 [Compound I-12, N-(azetidin-3-yl)-6-(imidazo[1,2-a]pyridin-3-yl)pyridin-2-amine]

Structure (SMILES): Fc1cc(F)c(-c2cnc3ccc(Cl)cn23)nc1NC1CNC1 [Compound I-47]
IC50 (MLL-AF9 NRas cells): 1880 nM
Stability [1]: >30.0 min

Structure (SMILES): Cc1ccc(NC2CNC2)nc1-c1cnc2ccc(Cl)cn12 [Compound I-49]
IC50 (MLL-AF9/FLT3-ITD cells): 892 nM

Stability [1]: 27 min
Structure (SMILES): COc1cc2ncc(-c3cccc(NC4CCNC4)n3)n2cc1Cl (centres unmarked) [Compound I-21, 6-(6-chloro-7-methoxyimidazo[1,2-a]pyridin-3-yl)-N-(pyrrolidin-3-yl)pyridin-2-amine]

Stability [1]: >30.0 min
Structure (SMILES): Cc1ccn2c(-c3cccc(NC4CNC4)n3)cnc2c1 [Compound I-61, N-(azetidin-3-yl)-6-(7-methylimidazo[1,2-a]pyridin-3-yl)pyridin-2-amine]

Structure (SMILES): COc1cc2ncc(-c3nc(NC4CCNC4)c(F)cc3F)n2cc1-c1cn[nH]c1 (centres unmarked) [Compound I-33, 3,5-difluoro-6-(7-methoxy-6-(1H-pyrazol-4-yl)imidazo[1,2-a]pyridin-3-yl)-N-(pyrrolidin-3-yl)pyridin-2-amine]
IC50 (MLL-AF9 NRas cells): 29800 nM
Stability [1]: 9.3 min

Structure (SMILES): c1cc(NC2CCNC2)nc(-c2cnc3cc(OCCN4CCOCC4)c(-c4cn[nH]c4)cn23)c1 (centres unmarked) [Compound I-41, 6-(7-(2-morpholinoethoxy)-6-(1H-pyrazol-4-yl)imidazo[1,2-a]pyridin-3-yl)-N-(pyrrolidin-3-yl)pyridin-2-amine]
IC50 (MLL-AF9 NRas cells): 17600 nM
Stability [1]: >30.0 min

Structure (SMILES): O=C(c1ccccc1)N1CC(Nc2cccc(-c3cnc4ccc(Cl)cn34)n2)C1 [Compound I-58]
IC50 (MLL-AF9/FLT3-ITD cells): 709 nM
Stability [1]: 8.0 min

Structure (SMILES): COc1cc2ncc(-c3cccc(NC4CCNC4)n3)n2cc1C#N (centres unmarked) [Compound I-39]
IC50 (MLL-AF9/FLT3-ITD cells): 33 nM
IC50 (MLL-AF9 NRas cells): 5580 nM
Stability [1]: 8.8 min

Structure (SMILES): COc1cc2ncc(-c3cccc(NC4CCNC4)n3)n2cc1-c1c(C)n[nH]c1C (centres unmarked) [Compound I-25, 6-(6-(3,5-dimethyl-1H-pyrazol-4-yl)-7-methoxyimidazo[1,2-a]pyridin-3-yl)-N-(pyrrolidin-3-yl)pyridin-2-amine]
IC50 (MLL-AF9 NRas cells): 15700 nM
Stability [1]: >30.0 min

Stability [1]: >30.0 min
Structure (SMILES): COc1ccn2c(-c3cccc(NC4CNC4)n3)cnc2c1 [Compound I-50, N-(azetidin-3-yl)-6-(7-methoxyimidazo[1,2-a]pyridin-3-yl)pyridin-2-amine]

Structure (SMILES): CCN1CCN(c2ccc3ncc(-c4cccc(NC5CNC5)n4)n3c2)CC1 [Compound I-64]
IC50 (MLL-AF9/FLT3-ITD cells): 2000 nM

Structure (SMILES): N#CCC(=O)N1CC(Nc2cccc(-c3cnc4ccc(Cl)cn34)n2)C1 [Compound I-59]
IC50 (MLL-AF9/FLT3-ITD cells): 205 nM
Stability [1]: >30.0 min

Structure (SMILES): COc1cc(-c2cn[nH]c2)cn2c(-c3cccc(NC4CCNC4)n3)cnc12 (centres unmarked) [Compound I-37]
IC50 (MLL-AF9/FLT3-ITD cells): 2220 nM
IC50 (MLL-AF9 NRas cells): 16600 nM
Stability [1]: 2.3 min

Structure (SMILES): Brc1ccc2ncc(-c3cccc(NC4CNC4)n3)n2c1 [Compound I-52]
IC50 (MLL-AF9/FLT3-ITD cells): 85 nM

Structure (SMILES): c1cc(NC2CNC2)nc(-c2cnc3ccc(-c4cn[nH]c4)cn23)c1 [Compound I-45]
IC50 (MLL-AF9/FLT3-ITD cells): 460 nM
IC50 (MLL-AF9 NRas cells): 4290 nM

Structure (SMILES): CC(=O)N1CC(Nc2cccc(-c3cnc4ccc(Cl)cn34)n2)C1 [Compound I-57]
IC50 (MLL-AF9/FLT3-ITD cells): 399 nM
Stability [1]: >30.0 min

Stability [1]: >30.0 min
Structure (SMILES): Clc1ccc2ncc(-c3cccc(NC4CCCNC4)n3)n2c1 (centres unmarked) [Compound I-17, 6-(6-chloroimidazo[1,2-a]pyridin-3-yl)-N-(piperidin-3-yl)pyridin-2-amine]

Structure (SMILES): Clc1ccc2ncc(-c3cccc(NC4CNC4)n3)n2c1 [Compound I-15, N-(azetidin-3-yl)-6-(6-chloroimidazo[1,2-a]pyridin-3-yl)pyridin-2-amine]
IC50 (MLL-AF9/FLT3-ITD cells): 1180 nM
IC50 (MLL-AF9 NRas cells): 16600 nM

Structure (SMILES): Cn1cc(-c2ccc3ncc(-c4cccc(NC5CNC5)n4)n3c2)cn1 [Compound I-46]
IC50 (MLL-AF9/FLT3-ITD cells): 213 nM
IC50 (MLL-AF9 NRas cells): 16600 nM
Stability [1]: >30.0 min

Structure (SMILES): CC(C)(C)c1cc(NC(=O)Nc2ccc(-c3cn4c(n3)sc3cc(OCCN5CCOCC5)ccc34)cc2)no1 [quizartinib]
IC50 (IRAK4): inactive
IC50 (IRAK1): inactive

Structure (SMILES): COc1cc2ncc(-c3cccc(NC4CCNC4)n3)n2cc1-c1cnn(CCN2CCOCC2)c1 (centres unmarked) [Compound I-26]
IC50 (MLL-AF9/FLT3-ITD cells): 20 nM
IC50 (MLL-AF9 NRas cells): 15700 nM
Stability [1]: >30.0 min

Structure (SMILES): COc1cc2ncc(-c3cccc(NC4CCNC4)n3)n2cc1-c1ccncc1 (centres unmarked) [Compound I-23, 6-(7-methoxy-6-(pyridin-4-yl)imidazo[1,2-a]pyridin-3-yl)-N-(pyrrolidin-3-yl)pyridin-2-amine]
IC50 (MLL-AF9 NRas cells): 1830 nM
Stability [1]: >30.0 min

Structure (SMILES): Cc1ccc(-c2cnc3ccc(Cl)cn23)nc1NC1CNC1 [Compound I-48]
IC50 (MLL-AF9/FLT3-ITD cells): 2790 nM

Structure (SMILES): Clc1ccc2ncc(-c3cccc(NC4CCNC4)n3)n2c1 (centres unmarked) [Compound I-16, 6-(6-chloroimidazo[1,2-a]pyridin-3-yl)-N-(pyrrolidin-3-yl)pyridin-2-amine]
IC50 (MLL-AF9 NRas cells): 1760 nM

Stability [1]: >30.0 min
Structure (SMILES): COc1cc(NC2CNC2)nc(-c2cnc3ccc(Cl)cn23)c1 [Compound I-67, N-(azetidin-3-yl)-6-(6-chloroimidazo[1,2-a]pyridin-3-yl)-4-methoxypyridin-2-amine]
